According to ChEMBL document CHEMBL3727344, “2-fluoro-benzenesulfonamide compounds as RAF kinase modulators” (2014):

Tests used:
[1] = biological target: Serine/threonine-protein kinase B-raf (Homo sapiens, UniProt P15056); experiment: Inhibition of B-Raf (unknown origin)
[2] = biological target: Serine/threonine-protein kinase B-raf (Homo sapiens, UniProt P15056, V600E); experiment: Inhibition of B-Raf V600E mutant (unknown origin)
[3] = biological target: T1, Serine/threonine-protein kinase A-Raf (Homo sapiens, UniProt P10398); experiment: Inhibition of A-Raf (unknown origin)
T1 sequence (P10398 whole entry): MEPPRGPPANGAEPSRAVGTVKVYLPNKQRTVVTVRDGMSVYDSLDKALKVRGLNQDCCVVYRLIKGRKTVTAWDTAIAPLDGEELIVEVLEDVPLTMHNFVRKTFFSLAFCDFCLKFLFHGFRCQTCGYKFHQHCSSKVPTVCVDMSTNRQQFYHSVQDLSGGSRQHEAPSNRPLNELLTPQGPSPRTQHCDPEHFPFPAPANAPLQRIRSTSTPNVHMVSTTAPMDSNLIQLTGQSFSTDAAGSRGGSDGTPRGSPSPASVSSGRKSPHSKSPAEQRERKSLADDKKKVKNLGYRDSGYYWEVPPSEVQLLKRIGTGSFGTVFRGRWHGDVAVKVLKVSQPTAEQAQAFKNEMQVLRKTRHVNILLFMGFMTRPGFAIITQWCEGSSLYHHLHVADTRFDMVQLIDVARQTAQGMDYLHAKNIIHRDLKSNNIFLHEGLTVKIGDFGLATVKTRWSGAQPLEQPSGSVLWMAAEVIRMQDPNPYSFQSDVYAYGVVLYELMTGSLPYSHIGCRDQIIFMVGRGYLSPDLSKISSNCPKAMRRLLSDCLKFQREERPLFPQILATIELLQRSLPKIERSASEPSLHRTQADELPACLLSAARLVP

[4] = biological target: RAF proto-oncogene serine/threonine-protein kinase (Homo sapiens, UniProt P04049); experiment: Inhibition of c-Raf 1 (unknown origin)
Sequence of RAF proto-oncogene serine/threonine-protein kinase (P04049 whole entry): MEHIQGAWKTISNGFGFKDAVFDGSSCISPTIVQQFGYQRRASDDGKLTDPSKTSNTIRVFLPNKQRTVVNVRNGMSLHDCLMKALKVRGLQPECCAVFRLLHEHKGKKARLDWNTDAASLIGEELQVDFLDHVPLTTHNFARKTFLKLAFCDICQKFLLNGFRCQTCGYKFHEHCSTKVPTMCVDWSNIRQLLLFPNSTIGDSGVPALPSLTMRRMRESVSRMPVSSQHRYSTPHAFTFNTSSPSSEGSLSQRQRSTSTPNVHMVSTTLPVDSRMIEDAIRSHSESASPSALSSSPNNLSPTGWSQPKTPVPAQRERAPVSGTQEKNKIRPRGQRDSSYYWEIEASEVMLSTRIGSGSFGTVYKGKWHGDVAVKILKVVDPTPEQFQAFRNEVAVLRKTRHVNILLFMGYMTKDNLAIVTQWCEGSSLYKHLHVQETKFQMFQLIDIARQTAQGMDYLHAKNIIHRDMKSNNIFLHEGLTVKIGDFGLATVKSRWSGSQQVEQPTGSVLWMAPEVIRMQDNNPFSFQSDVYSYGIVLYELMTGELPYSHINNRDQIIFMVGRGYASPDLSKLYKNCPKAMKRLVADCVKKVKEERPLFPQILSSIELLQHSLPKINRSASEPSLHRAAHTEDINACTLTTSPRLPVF

[5] = biological target: Tyrosine-protein kinase BTK (Homo sapiens, UniProt Q06187); experiment: Inhibition of Btk (unknown origin)
[6] = biological target: Vascular endothelial growth factor receptor 2 (Homo sapiens, UniProt P35968); experiment: Inhibition of Kdr (unknown origin)
[7] = biological target: Mast/stem cell growth factor receptor Kit (Homo sapiens, UniProt P10721); experiment: Inhibition of Kit (unknown origin)
[8] = biological target: Proto-oncogene tyrosine-protein kinase Src (Homo sapiens, UniProt P12931); experiment: Inhibition of Src (unknown origin)
Sequence of Proto-oncogene tyrosine-protein kinase Src (P12931 2-536 limits assumed): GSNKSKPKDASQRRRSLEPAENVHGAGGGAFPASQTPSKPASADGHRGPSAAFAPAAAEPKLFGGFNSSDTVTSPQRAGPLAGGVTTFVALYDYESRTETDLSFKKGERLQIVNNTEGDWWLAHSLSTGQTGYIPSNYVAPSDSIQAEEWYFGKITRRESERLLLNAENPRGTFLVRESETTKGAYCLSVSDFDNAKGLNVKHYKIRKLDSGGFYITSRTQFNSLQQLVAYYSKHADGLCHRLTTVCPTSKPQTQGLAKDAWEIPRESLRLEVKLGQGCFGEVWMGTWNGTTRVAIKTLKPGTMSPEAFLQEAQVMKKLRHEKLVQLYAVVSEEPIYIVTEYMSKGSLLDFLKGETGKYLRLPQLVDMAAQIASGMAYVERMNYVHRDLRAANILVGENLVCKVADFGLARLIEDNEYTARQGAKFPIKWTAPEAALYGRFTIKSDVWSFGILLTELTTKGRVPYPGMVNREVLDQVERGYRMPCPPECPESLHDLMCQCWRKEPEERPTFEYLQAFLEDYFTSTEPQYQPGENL

[9] = biological target: High affinity nerve growth factor receptor (Homo sapiens, UniProt P04629); experiment: Inhibition of TrkA (unknown origin)
Sequence of High affinity nerve growth factor receptor (P04629 whole entry): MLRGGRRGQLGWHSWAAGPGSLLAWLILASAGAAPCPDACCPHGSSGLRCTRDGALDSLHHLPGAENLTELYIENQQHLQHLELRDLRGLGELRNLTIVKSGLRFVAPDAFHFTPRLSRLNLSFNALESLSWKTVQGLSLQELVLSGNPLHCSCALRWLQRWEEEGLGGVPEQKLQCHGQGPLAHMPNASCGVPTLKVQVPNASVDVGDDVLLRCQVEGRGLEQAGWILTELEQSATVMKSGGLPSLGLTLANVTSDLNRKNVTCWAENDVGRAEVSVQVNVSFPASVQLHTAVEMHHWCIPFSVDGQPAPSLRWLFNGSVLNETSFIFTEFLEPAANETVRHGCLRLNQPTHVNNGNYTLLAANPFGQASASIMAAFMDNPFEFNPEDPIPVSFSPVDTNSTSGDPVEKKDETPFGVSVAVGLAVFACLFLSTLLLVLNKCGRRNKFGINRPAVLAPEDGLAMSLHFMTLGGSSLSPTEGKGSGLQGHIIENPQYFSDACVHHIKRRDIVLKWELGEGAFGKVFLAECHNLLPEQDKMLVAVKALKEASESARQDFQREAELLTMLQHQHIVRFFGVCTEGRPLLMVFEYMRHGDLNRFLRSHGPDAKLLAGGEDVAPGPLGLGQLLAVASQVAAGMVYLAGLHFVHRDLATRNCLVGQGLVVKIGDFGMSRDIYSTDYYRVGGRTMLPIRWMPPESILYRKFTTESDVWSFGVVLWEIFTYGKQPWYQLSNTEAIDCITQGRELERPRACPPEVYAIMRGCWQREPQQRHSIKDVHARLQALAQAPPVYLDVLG

[10] = biological target: Protein-tyrosine kinase 6 (Homo sapiens, UniProt Q13882); experiment: Inhibition of Brk (unknown origin)
Sequence of Protein-tyrosine kinase 6 (Q13882 whole entry): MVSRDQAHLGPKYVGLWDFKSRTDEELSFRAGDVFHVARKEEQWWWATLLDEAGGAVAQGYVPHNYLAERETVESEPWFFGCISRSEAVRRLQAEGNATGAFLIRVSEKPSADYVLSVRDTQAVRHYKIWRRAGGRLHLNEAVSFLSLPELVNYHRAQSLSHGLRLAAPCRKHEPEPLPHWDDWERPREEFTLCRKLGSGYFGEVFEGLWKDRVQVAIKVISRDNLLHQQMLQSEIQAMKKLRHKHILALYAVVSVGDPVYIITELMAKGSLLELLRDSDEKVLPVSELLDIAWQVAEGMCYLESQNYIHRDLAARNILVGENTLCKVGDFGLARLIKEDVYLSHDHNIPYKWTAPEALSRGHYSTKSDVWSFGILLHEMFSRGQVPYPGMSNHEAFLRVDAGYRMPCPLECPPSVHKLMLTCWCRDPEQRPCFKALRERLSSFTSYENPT

[11] = biological target: Tyrosine-protein kinase CSK (Homo sapiens, UniProt P41240); experiment: Inhibition of Csk (unknown origin)
Focal adhesion kinase 1 = Focal adhesion kinase 1 (Homo sapiens, UniProt Q05397); experiment: Inhibition of Fak (unknown origin)
[12] = biological target: Tyrosine-protein kinase Lck (Homo sapiens, UniProt P06239); experiment: Inhibition of Lck (unknown origin)
[13] = biological target: Tyrosine-protein kinase Lyn (Homo sapiens, UniProt P07948); experiment: Inhibition of Lyn (unknown origin)
[14] = biological target: Tyrosine-protein kinase Yes (Homo sapiens, UniProt P07947); experiment: Inhibition of Yes (unknown origin)
[15] = biological target: Macrophage colony-stimulating factor 1 receptor (Homo sapiens, UniProt P07333); experiment: Inhibition of Fms (unknown origin)
Sequence of Macrophage colony-stimulating factor 1 receptor (P07333 whole entry): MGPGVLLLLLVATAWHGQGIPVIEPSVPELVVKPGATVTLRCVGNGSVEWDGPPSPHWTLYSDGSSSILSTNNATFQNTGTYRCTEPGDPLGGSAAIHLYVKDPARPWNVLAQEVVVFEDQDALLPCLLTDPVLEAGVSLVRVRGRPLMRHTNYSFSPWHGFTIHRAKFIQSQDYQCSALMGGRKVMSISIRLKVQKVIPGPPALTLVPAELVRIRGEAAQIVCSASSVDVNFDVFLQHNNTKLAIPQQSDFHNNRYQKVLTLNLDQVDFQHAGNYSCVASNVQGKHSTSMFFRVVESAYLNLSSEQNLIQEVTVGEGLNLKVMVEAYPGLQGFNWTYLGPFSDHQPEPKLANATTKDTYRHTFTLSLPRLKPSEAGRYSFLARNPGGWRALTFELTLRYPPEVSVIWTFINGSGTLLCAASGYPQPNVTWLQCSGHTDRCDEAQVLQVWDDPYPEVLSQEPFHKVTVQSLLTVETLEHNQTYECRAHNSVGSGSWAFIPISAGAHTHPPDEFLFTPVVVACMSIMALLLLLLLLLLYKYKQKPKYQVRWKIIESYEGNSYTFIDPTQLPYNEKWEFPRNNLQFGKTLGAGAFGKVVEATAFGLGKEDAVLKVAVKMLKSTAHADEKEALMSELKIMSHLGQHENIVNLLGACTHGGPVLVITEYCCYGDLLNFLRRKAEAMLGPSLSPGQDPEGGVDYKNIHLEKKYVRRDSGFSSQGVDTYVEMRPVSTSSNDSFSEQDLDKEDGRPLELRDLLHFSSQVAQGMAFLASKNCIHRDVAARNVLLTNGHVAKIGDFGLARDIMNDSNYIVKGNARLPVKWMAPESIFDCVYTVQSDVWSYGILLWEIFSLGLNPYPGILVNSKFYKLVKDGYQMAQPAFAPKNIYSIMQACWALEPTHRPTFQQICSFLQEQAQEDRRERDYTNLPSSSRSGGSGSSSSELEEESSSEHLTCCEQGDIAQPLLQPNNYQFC

Measured: IC50

Sequence of Serine/threonine-protein kinase B-raf (Homo sapiens, UniProt P15056, V600E) (P15056 2-766 V600E limits assumed): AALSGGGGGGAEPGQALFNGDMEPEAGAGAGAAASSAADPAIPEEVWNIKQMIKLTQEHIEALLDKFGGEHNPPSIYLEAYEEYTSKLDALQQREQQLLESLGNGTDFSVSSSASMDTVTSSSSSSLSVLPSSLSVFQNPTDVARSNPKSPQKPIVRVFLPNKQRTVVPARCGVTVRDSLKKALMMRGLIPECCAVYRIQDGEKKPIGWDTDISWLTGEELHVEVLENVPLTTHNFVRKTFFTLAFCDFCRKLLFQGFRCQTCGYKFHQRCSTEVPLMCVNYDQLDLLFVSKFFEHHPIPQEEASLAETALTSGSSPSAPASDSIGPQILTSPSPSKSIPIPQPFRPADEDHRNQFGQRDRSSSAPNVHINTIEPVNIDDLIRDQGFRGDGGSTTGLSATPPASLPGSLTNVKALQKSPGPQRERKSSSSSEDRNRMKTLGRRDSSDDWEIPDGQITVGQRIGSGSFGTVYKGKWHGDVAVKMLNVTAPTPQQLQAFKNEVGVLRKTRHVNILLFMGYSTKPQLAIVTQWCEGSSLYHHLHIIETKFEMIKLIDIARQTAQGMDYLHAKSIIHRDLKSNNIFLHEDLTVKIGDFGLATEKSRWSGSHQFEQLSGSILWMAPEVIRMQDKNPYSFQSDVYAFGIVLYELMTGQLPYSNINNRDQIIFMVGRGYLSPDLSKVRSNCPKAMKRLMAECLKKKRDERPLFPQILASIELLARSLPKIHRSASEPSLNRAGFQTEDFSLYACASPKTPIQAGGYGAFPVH
Sequence of Serine/threonine-protein kinase B-raf (Homo sapiens, UniProt P15056) (P15056 whole entry): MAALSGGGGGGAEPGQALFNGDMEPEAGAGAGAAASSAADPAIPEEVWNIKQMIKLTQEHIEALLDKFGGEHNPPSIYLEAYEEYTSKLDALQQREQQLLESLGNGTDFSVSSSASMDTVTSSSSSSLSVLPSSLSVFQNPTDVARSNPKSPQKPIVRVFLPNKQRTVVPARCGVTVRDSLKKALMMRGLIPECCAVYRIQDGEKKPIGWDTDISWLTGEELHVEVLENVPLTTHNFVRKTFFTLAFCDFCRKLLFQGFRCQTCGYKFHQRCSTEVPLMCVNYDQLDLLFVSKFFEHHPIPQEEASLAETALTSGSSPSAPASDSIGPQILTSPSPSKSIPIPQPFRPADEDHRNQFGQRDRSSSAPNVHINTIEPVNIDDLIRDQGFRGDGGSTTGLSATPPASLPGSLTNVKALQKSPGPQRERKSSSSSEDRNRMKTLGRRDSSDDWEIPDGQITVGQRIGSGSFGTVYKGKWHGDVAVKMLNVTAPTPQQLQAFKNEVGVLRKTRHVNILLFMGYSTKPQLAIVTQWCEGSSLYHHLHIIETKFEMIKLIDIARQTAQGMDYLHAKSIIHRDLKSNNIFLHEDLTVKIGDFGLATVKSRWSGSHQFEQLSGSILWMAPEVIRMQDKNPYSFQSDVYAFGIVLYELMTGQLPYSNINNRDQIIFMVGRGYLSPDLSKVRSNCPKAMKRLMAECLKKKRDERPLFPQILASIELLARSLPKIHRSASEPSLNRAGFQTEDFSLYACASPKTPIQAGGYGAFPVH

CCCS(=O)(=O)Nc1ccc(Cl)c(C(=O)Nc2cnc3ccccn23)c1F
≤ 10 µM: [1] | [2]

CCCS(=O)(=O)Nc1ccc(Cl)c(C(=O)Nc2ccc(NC3CCCC3)nc2)c1F
≤ 10 µM: [3] | [4]

CCCS(=O)(=O)Nc1ccc(Cl)c(C(=O)Nc2nnc(Cc3ccc(Cl)cc3)s2)c1F
≤ 10 µM: [3]

CCCS(=O)(=O)Nc1ccc(Cl)c(C(=O)Nc2ccc(NC(=O)N3CCCC3)nc2)c1F
≤ 10 µM: [3]

CCCS(=O)(=O)Nc1ccc(F)c(C(=O)Nc2ccc(NC(C)=O)nc2)c1F
≤ 10 µM: [3] | [1] | [2] | [4]

CCCS(=O)(=O)Nc1ccc(Cl)c(C(=O)Nc2cccnc2)c1F
≤ 10 µM: [3] | [2] | [4]

CCCS(=O)(=O)Nc1ccc(Cl)c(C(=O)Nc2cnc3ccccc3c2)c1F
≤ 10 µM: [3] | [1] | [2] | [4]

CCCS(=O)(=O)Nc1ccc(Cl)c(C(=O)Nc2ccc(NC(C)C)nc2)c1F
≤ 10 µM: [3] | [2]

CCCS(=O)(=O)Nc1ccc(Cl)c(C(=O)Nc2cnc(NC(C)=O)nc2)c1F
≤ 10 µM: [3] | [1] | [2] | [4]

CCCS(=O)(=O)Nc1ccc(F)c(C(=O)Nc2cnc3ccccc3c2)c1F
≤ 10 µM: [3] | [1] | [2] | [4]

CCCS(=O)(=O)Nc1ccc(Cl)c(C(=O)Nc2ccc(NC3CC3)nc2)c1F
≤ 10 µM: [3] | [1] | [2] | [4]

CCCS(=O)(=O)Nc1ccc(F)c(CNc2ccc(NC(C)=O)nc2)c1F
≤ 10 µM: [3] | [2] | [4]

CCCS(=O)(=O)Nc1ccc(Cl)c(C(=O)Nc2ccc(Nc3ncc(C)s3)nc2)c1F
≤ 10 µM: [3] | [1] | [2] | [4] | [5] | [6] | [7] | [8] | [9]

CCCS(=O)(=O)Nc1ccc(Cl)c(C(=O)Nc2ccc(NC(C)=O)nc2)c1F
not listed: [5] | [6] | [7] | [15]
≤ 10 µM: all other assays above

CCCS(=O)(=O)Nc1ccc(F)c(COc2cnc3ccccc3c2)c1F
≤ 10 µM: [15] | [3] | [2]

CCCS(=O)(=O)Nc1ccc(F)c(CNc2cnc3ccccc3c2)c1F
≤ 10 µM: [3] | [2] | [4]

CCCS(=O)(=O)Nc1ccc(Cl)c(C(=O)Nc2ccc(NCc3ccccc3)nc2)c1F
≤ 10 µM: [3] | [1] | [2] | [4]

CCCS(=O)(=O)Nc1ccc(F)c(NCc2cnc3ccccc3c2)c1F
≤ 10 µM: [3] | [2]

CCCS(=O)(=O)Nc1ccc(Cl)c(C(=O)Nc2cc(-c3ccc(Cl)cc3)n[nH]2)c1F
≤ 10 µM: [15] | [3]

CCCS(=O)(=O)Nc1ccc(Cl)c(C(=O)Nc2ccc(NCc3cccs3)nc2)c1F
≤ 10 µM: [3] | [1] | [2] | [4]
